Active and inactive are the calls of the source.
Columns and labels:
[1] = Cytotoxicity against African green monkey Vero cells assessed as cell viability after 3 days by XTT assay; format: cell-based; conditions: chlorocebus sabaeus
[2] = test system: Mycobacterium tuberculosis; test: Antimycobacterial activity against Mycobacterium tuberculosis H37Ra infected in BALB/c mouse assessed as reduction of bacterial load in liver at 25 mg/kg, po administered for 2 weeks started on day 4 post bacterial infection measured 3 days post last dose; format: functional
[3] = test system: Mus musculus; test: Toxicity in BALB/c mouse infected with Mycobacterium tuberculosis H37Ra assessed as behavioral changes at 6.25 to 25 mg/kg, po administered for 2 weeks started on day 4 post bacterial infection in presence of isoniazid; format: organism-based; conditions: in vivo, 336 h
[4] = test system: Mycobacterium tuberculosis; test: Antimycobacterial activity against Mycobacterium tuberculosis H37Ra infected in BALB/c mouse assessed as reduction of bacterial load in lung at 12.5 mg/kg, po administered for 2 weeks started on day 4 post bacterial infection measured 3 days post last dose co-treated with 1 mg/kg, po isoniazid; format: functional
[5] = test system: Mus musculus; test: Toxicity in BALB/c mouse infected with Mycobacterium tuberculosis H37Ra assessed as change in urea level in serum at 6.25 to 25 mg/kg, po administered for 2 weeks started on day 4 post bacterial infection in presence of isoniazid; format: organism-based; conditions: in vivo, 336 h
[6] = test system: Mycobacterium tuberculosis; test: Antimycobacterial activity against Mycobacterium tuberculosis H37Ra assessed as inhibition of mycobacterial replication after 6 days by microplate Alamar blue assay; format: functional; conditions: 144 h
[7] = test system: Mycobacterium tuberculosis; test: Antimycobacterial activity against Mycobacterium tuberculosis H37Ra infected in BALB/c mouse assessed as reduction of bacterial load in spleen at 25 mg/kg, po administered for 2 weeks started on day 4 post bacterial infection measured 3 days post last dose; format: functional
[8] = test system: Mus musculus; test: Toxicity in BALB/c mouse infected with Mycobacterium tuberculosis H37Ra assessed as weight loss at 6.25 to 25 mg/kg, po administered for 2 weeks started on day 4 post bacterial infection in presence of isoniazid; format: organism-based; conditions: in vivo, 336 h
[9] = test system: Mus musculus; test: Toxicity in BALB/c mouse infected with Mycobacterium tuberculosis H37Ra assessed as change in phosphate level in serum at 6.25 to 25 mg/kg, po administered for 2 weeks started on day 4 post bacterial infection; format: organism-based; conditions: in vivo, 336 h
[10] = test system: Mus musculus; test: Toxicity in BALB/c mouse infected with Mycobacterium tuberculosis H37Ra assessed as change in amylase level in serum at 6.25 to 25 mg/kg, po administered for 2 weeks started on day 4 post bacterial infection in presence of isoniazid; format: organism-based; conditions: in vivo, 336 h
[11] = test system: Mus musculus; test: Toxicity in BALB/c mouse infected with Mycobacterium tuberculosis H37Ra assessed as change in alkaline phosphatase level in serum at 6.25 to 25 mg/kg, po administered for 2 weeks started on day 4 post bacterial infection; format: organism-based; conditions: in vivo, 336 h
[12] = test system: Mycobacterium tuberculosis; test: Antimycobacterial activity against Mycobacterium tuberculosis H37Ra infected in BALB/c mouse assessed as reduction of bacterial load in spleen at 6.25 to 6.25 mg/kg, po administered for 2 weeks started on day 4 post bacterial infection measured 3 days post last dose; format: functional, organism-based
[13] = test system: Mus musculus; test: Toxicity in BALB/c mouse infected with Mycobacterium tuberculosis H37Ra assessed as change in amylase level in serum at 6.25 to 25 mg/kg, po administered for 2 weeks started on day 4 post bacterial infection; format: organism-based; conditions: in vivo, 336 h
[14] = test system: Mycobacterium tuberculosis; test: Antimycobacterial activity against Mycobacterium tuberculosis H37Ra infected in BALB/c mouse assessed as reduction of bacterial load in lung at 25 mg/kg, po administered for 2 weeks started on day 4 post bacterial infection measured 3 days post last dose; format: functional
[15] = test system: Mus musculus; test: Toxicity in BALB/c mouse infected with Mycobacterium tuberculosis H37Ra assessed as change in phosphate level in serum at 6.25 to 25 mg/kg, po administered for 2 weeks started on day 4 post bacterial infection in presence of isoniazid; format: organism-based; conditions: in vivo, 336 h
[16] = test system: Mus musculus; test: Toxicity in BALB/c mouse infected with Mycobacterium tuberculosis H37Ra assessed as gross necroscopy changes at 6.25 to 25 mg/kg, po administered for 2 weeks started on day 4 post bacterial infection; format: organism-based; conditions: in vivo, 336 h
[17] = test system: Mus musculus; test: Toxicity in BALB/c mouse infected with Mycobacterium tuberculosis H37Ra at 6.25 to 25 mg/kg, po administered for 2 weeks started on day 4 post bacterial infection by necroscopy in presence of isoniazid; format: organism-based; conditions: in vivo, 336 h
[18] = test system: Mycobacterium tuberculosis; test: Antimycobacterial activity against Mycobacterium tuberculosis H37Ra infected in BALB/c mouse assessed as reduction of bacterial load in liver at 12.5 mg/kg, po administered for 2 weeks started on day 4 post bacterial infection measured 3 days post last dose co-treated with 1 mg/kg, po isoniazid; format: functional
[19] = test system: Mycobacterium tuberculosis; test: Antimycobacterial activity against Mycobacterium tuberculosis H37Ra infected in BALB/c mouse assessed as reduction in bacterial activity in spleen at 6.25 mg/kg, po administered for 2 weeks started on day 4 post bacterial infection measured 3 days post last dose co-treated with 1 mg/kg, po isoniazid; format: functional
[20] = test system: Mycobacterium tuberculosis; test: Antimycobacterial activity against Mycobacterium tuberculosis H37Ra infected in BALB/c mouse assessed as reduction in bacterial activity in lung at 6.25 mg/kg, po administered for 2 weeks started on day 4 post bacterial infection measured 3 days post last dose co-treated with 1 mg/kg, po isoniazid; format: functional
[21] = test system: Mus musculus; test: Toxicity in BALB/c mouse infected with Mycobacterium tuberculosis H37Ra assessed as change in creatinine level in serum at 6.25 to 25 mg/kg, po administered for 2 weeks started on day 4 post bacterial infection; format: organism-based; conditions: in vivo, 336 h
[22] = test system: Mus musculus; test: Toxicity in BALB/c mouse infected with Mycobacterium tuberculosis H37Ra assessed as change in urea level in serum at 6.25 to 25 mg/kg, po administered for 2 weeks started on day 4 post bacterial infection; format: organism-based; conditions: in vivo, 336 h
[23] = test system: Mus musculus; test: Toxicity in BALB/c mouse infected with Mycobacterium tuberculosis H37Ra assessed as change in cholesterol level in serum at 6.25 to 25 mg/kg, po administered for 2 weeks started on day 4 post bacterial infection; format: organism-based; conditions: in vivo, 336 h
[24] = test system: Mycobacterium tuberculosis; test: Antimycobacterial activity against Mycobacterium tuberculosis H37Ra infected in BALB/c mouse assessed as reduction of bacterial load in lung at 6.25 to 6.25 mg/kg, po administered for 2 weeks started on day 4 post bacterial infection measured 3 days post last dose; format: functional, organism-based
[25] = test system: Mus musculus; test: Toxicity in BALB/c mouse infected with Mycobacterium tuberculosis H37Ra assessed as behavioral changes at 6.25 to 25 mg/kg, po administered for 2 weeks started on day 4 post bacterial infection; format: organism-based; conditions: in vivo, 336 h
[26] = test system: Mus musculus; test: Toxicity in BALB/c mouse infected with Mycobacterium tuberculosis H37Ra assessed as change in creatinine level in serum at 6.25 to 25 mg/kg, po administered for 2 weeks started on day 4 post bacterial infection in presence of isoniazid; format: organism-based; conditions: in vivo, 336 h
[27] = test system: Mycobacterium tuberculosis; test: Antimycobacterial activity against Mycobacterium tuberculosis H37Ra assessed as inhibition of mycobacterial replication at 6.25 ug/ml after 6 days by microplate Alamar blue assay in absence of isoniazid; format: functional, organism-based
[28] = test system: Mus musculus; test: Toxicity in BALB/c mouse infected with Mycobacterium tuberculosis H37Ra assessed as change in calcium level in serum at 6.25 to 25 mg/kg, po administered for 2 weeks started on day 4 post bacterial infection; format: organism-based; conditions: in vivo, 336 h
[29] = test system: Mycobacterium tuberculosis; test: Antimycobacterial activity against Mycobacterium tuberculosis H37Ra infected in BALB/c mouse assessed as reduction of bacterial load in liver at 6.25 to 6.25 mg/kg, po administered for 2 weeks started on day 4 post bacterial infection measured 3 days post last dose; format: functional, organism-based
[30] = test system: Mus musculus; test: Toxicity in BALB/c mouse infected with Mycobacterium tuberculosis H37Ra assessed as change in calcium level in serum at 6.25 to 25 mg/kg, po administered for 2 weeks started on day 4 post bacterial infection in presence of isoniazid; format: organism-based; conditions: in vivo, 336 h
[31] = test system: Mus musculus; test: Toxicity in BALB/c mouse infected with Mycobacterium tuberculosis H37Ra at 6.25 to 25 mg/kg, po administered for 2 weeks started on day 4 post bacterial infection by necroscopy; format: organism-based; conditions: in vivo, 336 h
[32] = test system: Mycobacterium tuberculosis; test: Antimycobacterial activity against Mycobacterium tuberculosis H37Ra assessed as inhibition of mycobacterial replication at 25 ug/ml after 6 days by microplate Alamar blue assay; format: functional; conditions: 144 h
[33] = test system: Mycobacterium tuberculosis; test: Antimycobacterial activity against Mycobacterium tuberculosis H37Ra assessed as inhibition of mycobacterial replication at 6.25 ug/ml after 6 days by microplate Alamar blue assay in presence of isoniazid; format: functional; conditions: 144 h
[34] = test system: Mycobacterium tuberculosis; test: Ratio MIC90 for Mycobacterium tuberculosis H37Ra in presence of isoniazid to MIC90 for Mycobacterium tuberculosis H37Ra in absence of isoniazid; format: functional
[35] = test system: Mycobacterium tuberculosis; test: Antimycobacterial activity against Mycobacterium tuberculosis H37Ra infected in BALB/c mouse assessed as reduction of bacterial load in spleen at 12.5 mg/kg, po administered for 2 weeks started on day 4 post bacterial infection measured 3 days post last dose co-treated with 1 mg/kg, po isoniazid; format: functional
[36] = test system: Mus musculus; test: Toxicity in BALB/c mouse infected with Mycobacterium tuberculosis H37Ra assessed as change in alkaline phosphatase level in serum at 6.25 to 25 mg/kg, po administered for 2 weeks started on day 4 post bacterial infection in presence of isoniazid; format: organism-based; conditions: in vivo, 336 h
[37] = test system: Mus musculus; test: Toxicity in BALB/c mouse infected with Mycobacterium tuberculosis H37Ra assessed as change in cholesterol level in serum at 6.25 to 25 mg/kg, po administered for 2 weeks started on day 4 post bacterial infection in presence of isoniazid; format: organism-based; conditions: in vivo, 336 h
[38] = test system: Mycobacterium tuberculosis; test: Antimycobacterial activity against Mycobacterium tuberculosis H37Ra assessed as inhibition of mycobacterial replication at 200 ug/ml after 6 days by microplate Alamar blue assay; format: functional; conditions: 144 h
[39] = test system: Mycobacterium tuberculosis; test: Antimycobacterial activity against Mycobacterium tuberculosis H37Ra assessed as inhibition of mycobacterial replication at 100 ug/ml after 6 days by microplate Alamar blue assay; format: functional; conditions: 144 h
[40] = test system: Mus musculus; test: Toxicity in BALB/c mouse infected with Mycobacterium tuberculosis H37Ra assessed as weight loss at 6.25 to 25 mg/kg, po administered for 2 weeks started on day 4 post bacterial infection; format: organism-based; conditions: in vivo, 336 h
[41] = test system: Mycobacterium tuberculosis; test: Antimycobacterial activity against Mycobacterium tuberculosis H37Ra assessed as inhibition of mycobacterial replication at 50 ug/ml after 6 days by microplate Alamar blue assay; format: functional; conditions: 144 h
[42] = test system: Mycobacterium avium; test: Antimycobacterial activity against Mycobacterium avium ATCC 25291 assessed as inhibition of mycobacterial replication after 6 days by microplate Alamar blue assay; format: functional, Mycobacterium avium subsp. avium ATCC 25291; conditions: ATCC 25291, 144 h

CCCCCCCCCCCC#Cc1c[nH]c(=O)nc1N
> 200 mg/L: CC50 at 72 h [1]

CCCCCC#Cc1c[nH]c(=O)nc1N
Non-toxic: Activity [3] | Activity [5] | Activity [8] | Activity [9] | Activity [10] | Activity [11] | Activity [13] | Activity [15] | Activity [16] | Activity [17] | Activity [21] | Activity [22] | Activity [23] | Activity [25] | Activity [26] | Activity [28] | Activity [30] | Activity [31] | Activity [36] | Activity [37] | Activity [40]
100%: inhibition at 6.25 µg/mL [33] | inhibition at 200 µg/mL [38] | inhibition at 100 µg/mL [39] | inhibition at 50 µg/mL [41]
12.5 mg/L: MIC50 [6]
40%: inhibition (INH) [19]
96%: inhibition (INH) [18]
inactive: Activity [12] | Activity [24] | inhibition [27] | Activity [29]
0.37: fractional inhibitory concentration index (FICI) [34]
51%: inhibition in vivo at 25 mg/kg [7]
50%: inhibition in vivo at 25 mg/kg [2]
95%: inhibition (INH) [4]
70%: inhibition (INH) [20] | inhibition (INH) [35]
90%: inhibition at 25 µg/mL [32]
79%: inhibition in vivo at 25 mg/kg [14]
> 200 mg/L: CC50 at 72 h [1]

Nc1nc(=O)[nH]cc1C#Cc1ccccc1
45%: inhibition (INH) [35]
100%: inhibition at 6.25 µg/mL [33]
0.25: fractional inhibitory concentration index (FICI) [34]
Non-toxic: Activity [3] | Activity [5] | Activity [8] | Activity [9] | Activity [10] | Activity [11] | Activity [13] | Activity [15] | Activity [16] | Activity [17] | Activity [21] | Activity [22] | Activity [23] | Activity [25] | Activity [26] | Activity [28] | Activity [30] | Activity [31] | Activity [36] | Activity [37] | Activity [40]
25 mg/L: MIC50 [6]
> 200 mg/L: CC50 at 72 h [1]
70%: inhibition (INH) [4]
inactive: inhibition [2] | inhibition [7] | inhibition [14] | inhibition [27]

CC[C@H]1OC(=O)[C@H](C)[C@@H](O[C@H]2C[C@@](C)(OC)[C@@H](O)[C@H](C)O2)[C@H](C)[C@@H](O[C@@H]2O[C@H](C)C[C@H](N(C)C)[C@H]2O)[C@](C)(OC)C[C@@H](C)C(=O)[C@H](C)[C@@H](O)[C@]1(C)O [CLARITHROMYCIN]
2 mg/L: MIC90 [42]

Reference: ChEMBL document CHEMBL3784999, “Investigation of 4-amino-5-alkynylpyrimidine-2(1H)-ones as anti-mycobacterial agents” (Bioorg Med Chem, 2016)
